Values joined by “and” are separate entries in the source; they are usually repeats but may differ in a detail not shown here. Identical values can stand only once.
Key:
Listeria monocytogenes [1] = assay: Coloring reaction test of chromogenic reagents, 96 well plate; format: biochemical; conditions: chromogenic reagent terminal concentration 10 mM, 30 minutes at 37° C.
Escherichia coli = conditions: chromogenic reagent terminal concentration 10 mM, 30 minutes at 37° C.
Esherichia coli O157 = assay: Bacterial lysis efficacy by measuring optical density (OD); format: cell-based, Escherichia coli O157
Listeria monocytogenes [2] = assay: as above; format: cell-based
Staphylococcus aureus [3] = assay: as above; format: cell-based
[4] = system: 5 food risk microorganisms; assay: Bacterial lysis efficacy by optical density, overall statements; format: cell-based; conditions: detergents at 1%, tables 3 and 4
Salmonella spp. = assay: Bacterial lysis efficacy by measuring optical density (OD)
Vibrio vulnificus [5] = assay: as above
Vibrio vulnificus [6] = assay: Coloring reaction test of chromogenic reagents, 96 well plate; format: biochemical; conditions: chromogenic reagent terminal concentration 10 mM, 30 minutes at 37° C.
Staphylococcus aureus [7] = assay: as above; format: biochemical; conditions: chromogenic reagent terminal concentration 10 mM, 30 minutes at 37° C.
Escherichia coli O157 = conditions: chromogenic reagent terminal concentration 10 mM, 30 minutes at 37° C.

Aldol ® 518 myo-inositol-1-phosphate [Aldol-myo-inositol-1-phosphate]
coloring reaction (Listeria monocytogenes [1]): unique coloring reaction

O.O.O.O=C([O-])[C@H]1O[C@@H](Oc2c[nH]c3ccc(Br)c(Cl)c23)[C@H](O)[C@@H](O)[C@@H]1O.[Na+] [X-beta-glucuronide, 5-Bromo-4-chloro-3-indoxyl-beta-D-glucuronic acid Sodium salt trihydrate]
coloring reaction (Escherichia coli): unique coloring reaction

CCCCCCCCCCCCCC[N+](C)(C)CCCS(=O)(=O)[O-] [SB3-14]
Optical density (Esherichia coli O157; Table 7, additives to 1% SB3-14, initial O.D = 1.0911): 0.1112 and 0.1137 and 0.1126 | Optical density (Esherichia coli O157; Table 8, C7BZO concentrations added to 1% SB3-14, initial O.D = 1.0829): 0.1264 and 0.1254 and 0.1241 | Optical density (Esherichia coli O157; detergent 0.1%, initial O.D = 0.8139): 0.4641 and 0.4483 and 0.4351 | Optical density (Esherichia coli O157; detergent 0.5%, initial O.D = 0.8139): 0.2262 and 0.2254 and 0.2230 | Optical density (Esherichia coli O157; detergent 1%, initial O.D = 0.8139): 0.0270 and 0.0238 and 0.0244 | Optical density (Esherichia coli O157; detergent 2%, initial O.D = 0.8139): 0.4447 and 0.4452 and 0.4459 | Optical density (Esherichia coli O157; detergent 3%, initial O.D = 0.8139): 0.6228 and 0.6275 and 0.6225 | Optical density (Esherichia coli O157; detergent 5%, initial O.D = 0.8139): 0.6731 and 0.6746 and 0.6733 | Optical density (Listeria monocytogenes [2]; Table 7, additives to 1% SB3-14, initial O.D = 1.2010): 0.6579 and 0.6484 and 0.6514 | Optical density (Listeria monocytogenes [2]; Table 8, C7BZO concentrations added to 1% SB3-14, initial O.D = 1.1086): 0.7673 and 0.7609 and 0.7595 | Optical density (Listeria monocytogenes [2]; detergent 0.1%, initial O.D = 0.8336): 0.9540 and 0.9653 and 0.9757 | Optical density (Listeria monocytogenes [2]; detergent 0.5%, initial O.D = 0.8336): 0.8154 and 0.8244 and 0.8145 | Optical density (Listeria monocytogenes [2]; detergent 1%, initial O.D = 0.8336): 0.5993 and 0.5050 and 0.5950 | Optical density (Listeria monocytogenes [2]; detergent 2%, initial O.D = 0.8336): 0.9852 and 0.9975 and 0.9807 | Optical density (Listeria monocytogenes [2]; detergent 3%, initial O.D = 0.8336): 0.7006 and 0.6813 and 0.6884 | Optical density (Listeria monocytogenes [2]; detergent 5%, initial O.D = 0.8336): 0.7960 and 0.7828 and 0.7815 | Optical density (Staphylococcus aureus [3]; Table 7, additives to 1% SB3-14, initial O.D = 1.2274): 0.8154 and 0.8152 and 0.8153 | Optical density (Staphylococcus aureus [3]; Table 8, C7BZO concentrations added to 1% SB3-14, initial O.D = 1.1374): 0.8664 and 0.8654 and 0.8652 | Optical density (Staphylococcus aureus [3]; detergent 0.1%, initial O.D = 1.1877): 0.9052 and 0.9069 and 0.9087 | Optical density (Staphylococcus aureus [3]; detergent 0.5%, initial O.D = 1.1877): 1.1084 and 1.1070 and 1.1092 | Optical density (Staphylococcus aureus [3]; detergent 1%, initial O.D = 1.1877): 0.5341 and 0.5322 | Optical density (Staphylococcus aureus [3]; detergent 2%, initial O.D = 1.1877): 0.9473 and 0.9470 and 0.9461 | Optical density (Staphylococcus aureus [3]; detergent 3%, initial O.D = 1.1877): 1.0432 and 1.0429 and 1.0502 | Optical density (Staphylococcus aureus [3]; detergent 5%, initial O.D = 1.1877): 0.8999 and 0.8987 and 0.8865 | bacterial lysis efficacy [4]: best bacterial lysis efficacy | Optical density (Salmonella spp.; Table 7, additives to 1% SB3-14, initial O.D = 1.0894): 0.3597 and 0.3519 and 0.3447 | Optical density (Salmonella spp.; Table 8, C7BZO concentrations added to 1% SB3-14, initial O.D = 1.3421): 0.3640 and 0.3631 and 0.3627 | Optical density (Salmonella spp.; detergent 0.1%, initial O.D = 1.4448): 0.5393 and 0.5423 and 0.5520 | Optical density (Salmonella spp.; detergent 0.5%, initial O.D = 1.4448): 0.5807 and 0.5788 and 0.5796 | Optical density (Salmonella spp.; detergent 1%, initial O.D = 1.4448): 0.4105 and 0.4095 | Optical density (Salmonella spp.; detergent 2%, initial O.D = 1.4448): 0.5727 and 0.5754 and 0.5776 | Optical density (Salmonella spp.; detergent 3%, initial O.D = 1.4448): 0.5196 and 0.5221 | Optical density (Salmonella spp.; detergent 5%, initial O.D = 1.4448): 0.4419 and 0.4454 and 0.4443 | Optical density (Vibrio vulnificus [5]; Table 7, additives to 1% SB3-14, initial O.D = 0.5670): 0.0800 and 0.0798 and 0.0787 | Optical density (Vibrio vulnificus [5]; Table 8, C7BZO concentrations added to 1% SB3-14, initial O.D = 1.0272): 0.2733 and 0.2706 and 0.2737 | Optical density (Vibrio vulnificus [5]; detergent 0.1%, initial O.D = 0.6143, listed as SB-14): 0.1924 and 0.1953 and 0.1984 | Optical density (Vibrio vulnificus [5]; detergent 0.5%, initial O.D = 0.6143, listed as SB-14): 0.0679 and 0.0739 and 0.0695 | Optical density (Vibrio vulnificus [5]; detergent 1%, initial O.D = 0.6143, listed as SB-14): 0.0601 and 0.0595 and 0.0588 | Optical density (Vibrio vulnificus [5]; detergent 2%, initial O.D = 0.6143, listed as SB-14): 0.0445 and 0.0393 and 0.0447 | Optical density (Vibrio vulnificus [5]; detergent 3%, initial O.D = 0.6143, listed as SB-14): 0.0453 and 0.0547 and 0.0528 | Optical density (Vibrio vulnificus [5]; detergent 5%, initial O.D = 0.6143, listed as SB-14): 0.0310 and 0.0329 and 0.0320

5-Bromo-6-chloro-3-indoxyl-beta-D-galactopyranoside [Magenta-beta-galactopyranoside]
coloring reaction (Vibrio vulnificus [6]): unique coloring reaction | coloring reaction (Staphylococcus aureus [7]): unique coloring reaction | coloring reaction (Escherichia coli O157): unique coloring reaction

— patent US20200298233A1, “MICROFLUIDIC PAPER CHIP FOR DETECTING MICRO-ORGANISM, METHOD FOR PREPARING THE SAME AND METHOD FOR DETECTING MICRO-ORGANISM USING THE SAME” (BIOMAX CO., LTD., priority 2017, published 2020)
